# Laboratory results reported in PubChem BioAssay AID248 (DTP/NCI, 2004).
# “And” between values parts separate entries of the source, which are not always exact repeats. Equal entries are not always repeated. Inconclusive results and toxic doses are left out.
# System: L1210 leukemia ip in BDF1 mice, survival T/C
# Assay: NCI In Vivo Anticancer Drug Screen. Data for tumor model L1210 Leukemia (intraperitoneal) in B6D2F1 (BDF1) mice
# Conditions: higher = longer survival
# Method in brief: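 Survival endpoint. Drug-treated group vs vehicle group, expressed as T divided by C. Tumor passaged by transplantation.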
compound,measurement,setting,value
COc1cc(NS(C)(=O)=O)ccc1Nc1c2ccccc2nc2ccccc12,T/C,"endpoint: mean survival time, dose: 0.25 mg/kg/injection, schedule: Q03HX008 (ip), vehicle: other",120 % of control
same,T/C,"endpoint: mean survival time, dose: 0.38 mg/kg/injection, schedule: Q01DX009 (ip), vehicle: saline with Tween-80",185 % of control
same,T/C,"endpoint: mean survival time, dose: 0.75 mg/kg/injection, schedule: Q01DX009 (sc), vehicle: saline",118 % of control
same,T/C,"endpoint: mean survival time, dose: 1.0 mg/kg/injection, schedule: Q01DX009 (ip), vehicle: Klucel (hydroxypropylcellulose) (HPC)",160 % of control
same,T/C,"endpoint: mean survival time, dose: 1.25 mg/kg/injection, schedule: Q01DX009 (sc), vehicle: saline",112 % of control
same,T/C,"endpoint: mean survival time, dose: 1.35 mg/kg/injection, schedule: Q01DX009 (ip), vehicle: acetone",151 % of control
same,T/C,"endpoint: mean survival time, dose: 1.5 mg/kg/injection, schedule: Q01DX009 (sc), vehicle: saline",113 % of control
same,T/C,"endpoint: mean survival time, dose: 1.56 mg/kg/injection, schedule: Q01DX009 (ip), vehicle: saline with Tween-80",236 % of control
same,T/C,"endpoint: mean survival time, dose: 1.8 mg/kg/injection, schedule: Q01DX009 (ip), vehicle: water",150 % of control
same,T/C,"endpoint: mean survival time, dose: 1.9 mg/kg/injection, schedule: Q01DX001 (ip), vehicle: other",116 % of control
same,T/C,"endpoint: mean survival time, dose: 2.0 mg/kg/injection, schedule: Q03HX008 (ip), vehicle: other",203 % of control
same,T/C,"endpoint: mean survival time, dose: 2.05 mg/kg/injection, schedule: Q01DX009 (ip), vehicle: Klucel (hydroxypropylcellulose) (HPC)",155 % of control
same,T/C,"endpoint: mean survival time, dose: 2.05 mg/kg/injection, schedule: Q01DX009 (ip), vehicle: acetone",187 % of control
same,T/C,"endpoint: mean survival time, dose: 2.5 mg/kg/injection, schedule: Q01DX009 (sc), vehicle: saline",110 % of control and 121 % of control
same,T/C,"endpoint: mean survival time, dose: 3.0 mg/kg/injection, schedule: Q01DX009 (ip), vehicle: Klucel (hydroxypropylcellulose) (HPC)",176 % of control
same,T/C,"endpoint: mean survival time, dose: 3.0 mg/kg/injection, schedule: Q01DX009 (ip), vehicle: water",174 % of control
same,T/C,"endpoint: mean survival time, dose: 3.0 mg/kg/injection, schedule: Q01DX009 (sc), vehicle: saline",114 % of control
same,T/C,"endpoint: mean survival time, dose: 3.07 mg/kg/injection, schedule: Q01DX009 (ip), vehicle: Klucel (hydroxypropylcellulose) (HPC)",157 % of control
same,T/C,"endpoint: mean survival time, dose: 3.07 mg/kg/injection, schedule: Q01DX009 (ip), vehicle: acetone",188 % of control
same,T/C,"endpoint: mean survival time, dose: 3.12 mg/kg/injection, schedule: Q01DX009 (ip), vehicle: acetone",188 % of control
same,T/C,"endpoint: mean survival time, dose: 3.12 mg/kg/injection, schedule: Q01DX009 (ip), vehicle: saline with Tween-80",178 % of control and 216 % of control
same,T/C,"endpoint: mean survival time, dose: 3.75 mg/kg/injection, schedule: Q01DX001 (ip), vehicle: other",124 % of control
same,T/C,"endpoint: mean survival time, dose: 4.0 mg/kg/injection, schedule: Q01DX009 (ip), vehicle: Klucel (hydroxypropylcellulose) (HPC)",154 % of control
same,T/C,"endpoint: mean survival time, dose: 5.0 mg/kg/injection, schedule: Q01DX009 (ip), vehicle: saline with Tween-80",153 % of control
same,T/C,"endpoint: mean survival time, dose: 5.0 mg/kg/injection, schedule: Q01DX009 (ip), vehicle: water",113 % of control
same,T/C,"endpoint: mean survival time, dose: 5.0 mg/kg/injection, schedule: Q01DX009 (sc), vehicle: saline",123 % of control
same,T/C,"endpoint: mean survival time, dose: 6.0 mg/kg/injection, schedule: Q01DX009 (ip), vehicle: Klucel (hydroxypropylcellulose) (HPC)",150 % of control
same,T/C,"endpoint: mean survival time, dose: 6.25 mg/kg/injection, schedule: Q01DX009 (ip), vehicle: acetone",186 % of control
same,T/C,"endpoint: mean survival time, dose: 7.5 mg/kg/injection, schedule: Q04DX003 (ip), vehicle: other",156 % of control
same,T/C,"endpoint: mean survival time, dose: 8.0 mg/kg/injection, schedule: Q01DX009 (ip), vehicle: other",91 % of control
same,T/C,"endpoint: mean survival time, dose: 8.4 mg/kg/injection, schedule: Q01DX009 (ip), vehicle: water",89 % of control
same,T/C,"endpoint: mean survival time, dose: 10.0 mg/kg/injection, schedule: Q01DX009 (ip), vehicle: saline with Tween-80",207 % of control
same,T/C,"endpoint: mean survival time, dose: 12.5 mg/kg/injection, schedule: Q01DX009 (ip), vehicle: acetone",90 % of control
same,T/C,"endpoint: mean survival time, dose: 12.5 mg/kg/injection, schedule: Q01DX009 (ip), vehicle: saline with Tween-80",93 % of control
same,T/C,"endpoint: mean survival time, dose: 12.5 mg/kg/injection, schedule: Q01DX009 (ip), vehicle: saline",103 % of control
same,T/C,"endpoint: mean survival time, dose: 15.0 mg/kg/injection, schedule: Q04DX003 (ip), vehicle: other",294 % of control
same,T/C,"endpoint: mean survival time, dose: 18.75 mg/kg/injection, schedule: Q01DX001 (ip), vehicle: saline with Tween-80",160 % of control
same,T/C,"endpoint: mean survival time, dose: 25.0 mg/kg/injection, schedule: Q01DX001 (ip), vehicle: Klucel (hydroxypropylcellulose) (HPC)",152 % of control
same,T/C,"endpoint: mean survival time, dose: 30.0 mg/kg/injection, schedule: Q01DX001 (ip), vehicle: Klucel (hydroxypropylcellulose) (HPC)",254 % of control
same,T/C,"endpoint: mean survival time, dose: 30.0 mg/kg/injection, schedule: Q01DX001 (ip), vehicle: other",91 % of control
same,T/C,"endpoint: mean survival time, dose: 37.5 mg/kg/injection, schedule: Q01DX001 (ip), vehicle: saline with Tween-80",178 % of control and 270 % of control
same,T/C,"endpoint: mean survival time, dose: 45.0 mg/kg/injection, schedule: Q01DX001 (ip), vehicle: Klucel (hydroxypropylcellulose) (HPC)",160 % of control
same,T/C,"endpoint: mean survival time, dose: 50.0 mg/kg/injection, schedule: Q01DX001 (ip), vehicle: saline",158 % of control and 175 % of control
same,T/C,"endpoint: mean survival time, dose: 60.0 mg/kg/injection, schedule: Q01DX001 (ip), vehicle: Klucel (hydroxypropylcellulose) (HPC)",160 % of control and 255 % of control
same,T/C,"endpoint: mean survival time, dose: 75.0 mg/kg/injection, schedule: Q01DX001 (ip), vehicle: saline",202 % of control and 236 % of control
same,T/C,"endpoint: mean survival time, dose: 150.0 mg/kg/injection, schedule: Q01DX001 (ip), vehicle: saline with Tween-80",232 % of control
same,T/C,"endpoint: median survival time, dose: 1.0 mg/kg/injection, schedule: Q01DX009 (sc), vehicle: other",121 % of control
same,T/C,"endpoint: median survival time, dose: 2.0 mg/kg/injection, schedule: Q01DX009 (oral), vehicle: other",102 % of control
same,T/C,"endpoint: median survival time, dose: 4.0 mg/kg/injection, schedule: Q01DX009 (oral), vehicle: other",109 % of control
same,T/C,"endpoint: median survival time, dose: 8.0 mg/kg/injection, schedule: Q01DX009 (oral), vehicle: other",120 % of control
same,T/C,"endpoint: median survival time, dose: 8.0 mg/kg/injection, schedule: Q01DX009 (sc), vehicle: other",98 % of control
Cc1cc(C)c(Br)cc1N,T/C,"endpoint: mean survival time, dose: 100.0 mg/kg/injection, schedule: Q01DX001 (ip), vehicle: Klucel (hydroxypropylcellulose) (HPC)",90 % of control
same,T/C,"endpoint: mean survival time, dose: 200.0 mg/kg/injection, schedule: Q01DX001 (ip), vehicle: Klucel (hydroxypropylcellulose) (HPC)",95 % of control
same,T/C,"endpoint: mean survival time, dose: 400.0 mg/kg/injection, schedule: Q01DX001 (ip), vehicle: Klucel (hydroxypropylcellulose) (HPC)",102 % of control
CCCCCCCCCCCCCCNC1=C(C)C(=O)C(NCCCCCCCCCCCCCC)=C(C)C1=O,T/C,"endpoint: mean survival time, dose: 100.0 mg/kg/injection, schedule: Q01DX001 (ip), vehicle: carboxymethylcellulose (CMC)",98 % of control
same,T/C,"endpoint: mean survival time, dose: 200.0 mg/kg/injection, schedule: Q01DX001 (ip), vehicle: carboxymethylcellulose (CMC)",93 % of control
same,T/C,"endpoint: mean survival time, dose: 400.0 mg/kg/injection, schedule: Q01DX001 (ip), vehicle: carboxymethylcellulose (CMC)",89 % of control
COc1cc(/C=C\[N+](=O)[O-])ccc1O,T/C,"endpoint: mean survival time, dose: 25.0 mg/kg/injection, schedule: Q04DX003 (ip), vehicle: saline with Tween-80",93 % of control
same,T/C,"endpoint: mean survival time, dose: 50.0 mg/kg/injection, schedule: Q04DX003 (ip), vehicle: saline with Tween-80",96 % of control
same,T/C,"endpoint: mean survival time, dose: 100.0 mg/kg/injection, schedule: Q04DX003 (ip), vehicle: saline with Tween-80",95 % of control
C/C(=N\[N+](C)(C)C)c1ccc2ccccc2c1,T/C,"endpoint: mean survival time, dose: 25.0 mg/kg/injection, schedule: Q01DX009 (ip), vehicle: Klucel (hydroxypropylcellulose) (HPC)",101 % of control
same,T/C,"endpoint: mean survival time, dose: 25.0 mg/kg/injection, schedule: Q04DX003 (ip), vehicle: Klucel (hydroxypropylcellulose) (HPC)",101 % of control
same,T/C,"endpoint: mean survival time, dose: 50.0 mg/kg/injection, schedule: Q01DX009 (ip), vehicle: Klucel (hydroxypropylcellulose) (HPC)",100 % of control
same,T/C,"endpoint: mean survival time, dose: 50.0 mg/kg/injection, schedule: Q04DX003 (ip), vehicle: Klucel (hydroxypropylcellulose) (HPC)",105 % of control
same,T/C,"endpoint: mean survival time, dose: 100.0 mg/kg/injection, schedule: Q01DX009 (ip), vehicle: Klucel (hydroxypropylcellulose) (HPC)",90 % of control
same,T/C,"endpoint: mean survival time, dose: 100.0 mg/kg/injection, schedule: Q04DX003 (ip), vehicle: Klucel (hydroxypropylcellulose) (HPC)",95 % of control and 105 % of control
CCCCCn1c(C)cc(/C=C\c2ccc3cc(C)ccc3[n+]2C)c1C,T/C,"endpoint: mean survival time, dose: 0.5 mg/kg/injection, schedule: Q01DX001 (ip), vehicle: carboxymethylcellulose (CMC)",94 % of control
same,T/C,"endpoint: mean survival time, dose: 0.5 mg/kg/injection, schedule: Q01DX009 (ip), vehicle: saline sonified",116 % of control
same,T/C,"endpoint: mean survival time, dose: 0.5 mg/kg/injection, schedule: Q04DX003 (ip), vehicle: saline sonified",98 % of control
same,T/C,"endpoint: mean survival time, dose: 0.66 mg/kg/injection, schedule: Q01DX009 (ip), vehicle: saline",101 % of control
same,T/C,"endpoint: mean survival time, dose: 1.0 mg/kg/injection, schedule: Q01DX001 (ip), vehicle: carboxymethylcellulose (CMC)",97 % of control
same,T/C,"endpoint: mean survival time, dose: 1.0 mg/kg/injection, schedule: Q01DX009 (ip), vehicle: saline",100 % of control
same,T/C,"endpoint: mean survival time, dose: 1.0 mg/kg/injection, schedule: Q04DX003 (ip), vehicle: saline sonified",97 % of control
same,T/C,"endpoint: mean survival time, dose: 1.5 mg/kg/injection, schedule: Q01DX009 (ip), vehicle: saline",92 % of control
same,T/C,"endpoint: mean survival time, dose: 2.0 mg/kg/injection, schedule: Q01DX001 (ip), vehicle: carboxymethylcellulose (CMC)",97 % of control
same,T/C,"endpoint: mean survival time, dose: 2.0 mg/kg/injection, schedule: Q04DX003 (ip), vehicle: saline sonified",106 % of control
